Measurements reported in US10829520B2, “Beta-hairpin peptidomimetics” (POLYPHOR AG, priority 2015, dated 2020).
Where two headings read alike, the source gives them in different places. Where a SMILES comes first, the peptide text is derived from it. Bridges are numbered along the chain shown (N, C = ends). Roman numbers before positions name the chains, in order. [ ]: non-standard residue; d: D form. Tle = CC(C)(C)[C@H](N)C(=O)O; dNle = CCCC[C@@H](N)C(=O)O; dDab = NCC[C@@H](N)C(=O)O; Nle = CCCC[C@H](N)C(=O)O; Orn = NCCC[C@H](N)C(=O)O; Dab = NCC[C@H](N)C(=O)O; Dap = NC[C@H](N)C(=O)O; Sar = CNCC(=O)O

Legend:
Assay type in all cases: cell-based
[1] = test system: Acinetobacter baumannii 872842
[2] = test system: Acinetobacter baumannii DSM 30008; settings: DSM 30008
Procedure, shortened: (§1)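 CLSI broth microdilution in cation-adjusted Mueller-Hinton II broth with 0.002% Polysorbate 80, inoculum appr. 10^6 CFU/mL, peptides in serial two-fold dilutions. MIC (μg/mL) is the lowest concentration with no visible growth after 18-20 hours at 35° C.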

[3] = test system: Escherichia coli 926415
[4] = test system: Escherichia coli ATCC 25922; settings: ATCC 25922
Procedure, shortened: as §1

[5] = test system: Klebsiella pneumoniae 968733
[6] = test system: Klebsiella pneumoniae SSI #3010; settings: SSI #3010
Procedure, shortened: as §1

[7] = test system: Pseudomonas aeruginosa ATCC 27853; settings: ATCC 27853
Procedure, shortened: as §1

[8] = test system: human red blood cells (hRBC); assay: Hemolysis of human red blood cells; settings: red cells of human, 1 h
Procedure, shortened: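 Hemolysis was read as supernatant absorbance at 540 nm and expressed as a percentage of Triton X-100 (2.5%) lysis. Washed human red cells (20% v/v) had been exposed to each peptide at 100 μg/mL for 1 h at 37° C.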

[9] = clinical isolate, Mueller-Hinton II broth, P-80 0.002% present
[10] = clinical isolate, Mueller-Hinton II broth, measured in absence of P-80

Compound | Acinetobacter baumannii 872842 MIC [1]; 872842 [µg/mL] | Acinetobacter baumannii DSM 30008 MIC [2] [µg/mL] | Escherichia coli 926415 MIC [3]; 926415 [µg/mL] | Escherichia coli ATCC 25922 MIC [4] [µg/mL] | Klebsiella pneumoniae 968733 MIC [5]; 968733 [µg/mL] | Klebsiella pneumoniae SSI #3010 MIC [6] [µg/mL] | Pseudomonas aeruginosa ATCC 27853 MIC [7] [µg/mL] | Hemolysis at 100 μg/mL [8]; 100 [%] | Hemolysis at 100 μg/mL ([8]; 100 μg/mL) [%] | Acinetobacter baumannii 872842 MIC [1, 9] [µg/mL] | Acinetobacter baumannii 872842 MIC [1, 10] [µg/mL] | Escherichia coli 926415 MIC [3, 9] [µg/mL] | Escherichia coli 926415 MIC [3, 10] [µg/mL] | Klebsiella pneumoniae 968733 MIC [5, 9] [µg/mL] | Klebsiella pneumoniae 968733 MIC [5, 10] [µg/mL]
CCCC[C@@H]1NC(=O)[C@@H]2CCCN2C(=O)[C@H]2CCCN2C(=O)[C@H](CO)NC(=O)[C@H](C)NC(=O)[C@H](C(C)(C)C)NC(=O)[C@H](CCN)NC(=O)[C@H](Cc2c[nH]c3ccccc23)NC(=O)[C@H](CCN)NC(=O)[C@@H](CCC(=O)N[C@H]2CCNC(=O)[C@H]([C@@H](C)O)NC(=O)[C@H](CCN)NC(=O)[C@H](CCN)NC(=O)[C@H](CC(C)C)NC(=O)[C@@H](Cc3ccccc3)NC(=O)[C@H](CCN)NC2=O)NC(=O)[C@H](CCCN)NC(=O)[C@H](CCN)NC(=O)[C@H](Cc2ccc(O)cc2)NC(=O)[C@H](CO)NC1=O [Ex. 1] (I: cyclo([Nle]SY[Dab][Orn][dE][Dab]W[Dab][Tle]AS[dP]P) / II: [Dab][Dab][dF]L[Dab][Dab]T; amide I:6-II:N; lactam II:1-II:C) | 2 | 0.125 | 1 | 0.25 | 4 | 0.5 | 0.5 | 1 | – | – | – | – | – | – | –
CCCC[C@@H]1NC(=O)[C@@H]2CCCN2C(=O)[C@H]2CCCN2C(=O)[C@H](CO)NC(=O)[C@H](C)NC(=O)[C@H](C(C)(C)C)NC(=O)[C@H](CCN)NC(=O)[C@H](Cc2c[nH]c3ccccc23)NC(=O)[C@H](CCN)NC(=O)[C@@H](CCC(=O)N[C@@H](CCN)C(=O)N[C@H]2CCNC(=O)[C@H]([C@@H](C)O)NC(=O)[C@H](CCN)NC(=O)[C@H](CCN)NC(=O)[C@H](CC(C)C)NC(=O)[C@@H](Cc3ccccc3)NC(=O)[C@H](CCN)NC2=O)NC(=O)[C@H](CCCN)NC(=O)[C@H](CCN)NC(=O)[C@H](Cc2ccc(O)cc2)NC(=O)[C@H](CO)NC1=O [Ex. 2] (I: cyclo([Nle]SY[Dab][Orn][dE][Dab]W[Dab][Tle]AS[dP]P) / II: [Dab][Dab][Dab][dF]L[Dab][Dab]T; amide I:6-II:N; lactam II:2-II:C) | 2 | 1 | 2 | 0.5 | 4 | 1 | 0.25 | 1 | – | – | – | – | – | – | –
CCCC[C@@H]1NC(=O)[C@@H]2CCCN2C(=O)[C@H]2CCCN2C(=O)[C@H](CO)NC(=O)[C@H](C)NC(=O)[C@H](C(C)(C)C)NC(=O)[C@H](CCN)NC(=O)[C@H](Cc2c[nH]c3ccccc23)NC(=O)[C@H](CCN)NC(=O)[C@H](CCC(=O)N[C@@H](CCN)C(=O)N[C@H]2CCNC(=O)[C@H]([C@@H](C)O)NC(=O)[C@H](CCN)NC(=O)[C@H](CCN)NC(=O)[C@H](CC(C)C)NC(=O)[C@@H](Cc3ccccc3)NC(=O)[C@H](CCN)NC2=O)NC(=O)[C@H](CCCN)NC(=O)[C@H](CCN)NC(=O)[C@H](Cc2ccc(O)cc2)NC(=O)[C@H](CO)NC1=O [Ex. 3] (I: cyclo([Nle]SY[Dab][Orn]E[Dab]W[Dab][Tle]AS[dP]P) / II: [Dab][Dab][Dab][dF]L[Dab][Dab]T; amide I:6-II:N; lactam II:2-II:C) | 2 | 1 | 0.25 | 0.5 | 1 | 0.5 | 0.25 | <1 | – | – | – | – | – | – | –
CCCC[C@@H]1NC(=O)[C@@H]2CCCN2C(=O)[C@H]2CCCN2C(=O)[C@H]([C@@H](C)O)NC(=O)[C@H](CN)NC(=O)[C@H](C(C)(C)C)NC(=O)[C@@H](NC(=O)[C@H](Cc2c[nH]c3ccccc23)NC(C)=O)CSSC[C@@H](C(=O)N[C@@H](CCN)C(=O)N[C@H](C(=O)N[C@@H](CCN)C(=O)N[C@H]2CCNC(=O)[C@H]([C@@H](C)O)NC(=O)[C@H](CCN)NC(=O)[C@H](CCN)NC(=O)[C@H](CC(C)C)NC(=O)[C@@H](Cc3ccccc3)NC(=O)[C@H](CCN)NC2=O)[C@@H](C)O)NC(=O)[C@H](Cc2ccc(O)cc2)NC(=O)CNC1=O [Ex. 19] (Ac-WC[Tle][Dap]T[dP]P[Nle]GYC[Dab]T[Dab][Dab][Dab][dF]L[Dab][Dab]T; disulfide 2-11; lactam 15-C) | 0.75 | 0.25 | 0.25 | – | 0.75 | 1 | 1 | – | <1 | – | – | – | – | – | –
CCCC[C@@H]1NC(=O)[C@@H]2CCCN2C(=O)[C@H]2CCCN2C(=O)[C@H]([C@@H](C)O)NC(=O)[C@H](CN)NC(=O)[C@H](C(C)(C)C)NC(=O)[C@@H](NC(=O)[C@H](Cc2c[nH]c3ccccc23)NC(C)=O)CSSC[C@@H](C(=O)N[C@@H](CCN)C(=O)N[C@H](C(=O)N[C@@H](CCN)C(=O)N[C@H]2CCNC(=O)[C@H]([C@@H](C)O)NC(=O)[C@H](CCN)NC(=O)[C@H](CCN)NC(=O)[C@H](CC(C)C)NC(=O)[C@@H](Cc3ccccc3)NC(=O)[C@H](CCN)NC2=O)[C@@H](C)O)NC(=O)[C@H](Cc2ccc(O)cc2)NC(=O)CNC1=O [Ex. 116] (Ac-WC[Tle][Dap]T[dP]P[Nle]GYC[Dab]T[Dab][Dab][Dab][dF]L[Dab][Dab]T; disulfide 2-11; lactam 15-C) | 0.125 | 0.25 | 0.0625 | – | 0.5 | 0.25 | 1 | – | <1 | – | – | – | – | – | –
CCCC[C@@H]1NC(=O)[C@@H]2CCCN2C(=O)[C@H]2CCCN2C(=O)[C@H](CO)NC(=O)[C@H](C)NC(=O)[C@H](C(C)(C)C)NC(=O)[C@@H](NC(=O)[C@@H](N)Cc2c[nH]c3ccccc23)CSSC[C@@H](C(=O)N[C@@H](CCCN)C(=O)N[C@@H](CCN)C(=O)N[C@H]2CCNC(=O)[C@H]([C@@H](C)O)NC(=O)[C@H](CCN)NC(=O)[C@H](CCN)NC(=O)[C@H](CC(C)C)NC(=O)[C@@H](CCCC)NC(=O)[C@H](CCN)NC2=O)NC(=O)[C@H](Cc2ccc(O)cc2)NC(=O)[C@H](CO)NC1=O [Ex. 192] (H-WC[Tle]AS[dP]P[Nle]SYC[Orn][Dab][Dab][Dab][dNle]L[Dab][Dab]T; disulfide 2-11; lactam 14-C) | – | 0.25 | – | 0.25 | – | 0.25 | 2 | – | 5 | – | – | – | – | – | –
CCCC[C@@H]1NC(=O)[C@@H]2CCCN2C(=O)[C@H]2CCCN2C(=O)[C@H](CO)NC(=O)[C@H](C)NC(=O)[C@H](C(C)(C)C)NC(=O)[C@H](CCN)NC(=O)[C@H](Cc2c[nH]c3ccccc23)NC(=O)[C@@H](N)CSSC[C@@H](C(=O)N[C@H](CCN)C(=O)N[C@H]2CCNC(=O)[C@H]([C@@H](C)O)NC(=O)[C@H](CCN)NC(=O)[C@H](CCN)NC(=O)[C@H](CC(C)C)NC(=O)[C@@H](CC(C)C)NC(=O)[C@H](CCN)NC2=O)NC(=O)[C@H](CCCN)NC(=O)[C@H](CCN)NC(=O)[C@H](Cc2ccc(O)cc2)NC(=O)[C@H](CO)NC1=O [Ex. 195] (H-CW[Dab][Tle]AS[dP]P[Nle]SY[Dab][Orn]C[dDab][Dab][Dab][dL]L[Dab][Dab]T; disulfide 1-14; lactam 16-C) | – | 0.5 | – | 0.125 | – | 0.125 | 1 | – | <1 | – | – | – | – | – | –
CC(C)C[C@@H]1NC(=O)[C@@H](CC(C)C)NC(=O)[C@H](CCN)NC(=O)[C@@H](NC(=O)[C@@H](CCN)NC(=O)[C@@H]2CSSC[C@H](N)C(=O)N[C@@H](Cc3c[nH]c4ccccc34)C(=O)N[C@@H](CCN)C(=O)N[C@@H](C(C)(C)C)C(=O)N[C@@H](C)C(=O)N[C@@H](CO)C(=O)N3CCC[C@@H]3C(=O)N3CCC[C@H]3C(=O)N[C@@H](CC(C)C)C(=O)N[C@@H](CO)C(=O)N[C@@H](Cc3ccc(O)cc3)C(=O)N[C@@H](CCN)C(=O)N(C)CC(=O)N2)CCNC(=O)[C@H]([C@@H](C)O)NC(=O)[C@H](CCN)NC(=O)[C@H](CCN)NC1=O [Ex. 206] (H-CW[Dab][Tle]AS[dP]PLSY[Dab][Sar]C[dDab][Dab][Dab][dL]L[Dab][Dab]T; disulfide 1-14; lactam 16-C) | – | 4 | – | 0.5 | – | 1 | 4 | – | 1 | – | – | – | – | – | –
colistin [reference compound] | – | – | – | – | – | – | – | – | – | >8 | 64 | 8 | 16 | >8 | 16
